20 compounds from patent US11319324B2, “Pyrazolo-pyrrolo-pyrimidine-dione derivatives as P2X3 inhibitors” (Bayer Aktiengesellschaft, priority 2017, dated 2022) can be followed below.

The structures appear in SMILES notation. Some results are limits rather than exact numbers.

Assay type in all cases: cell-based
Test [1] has as its target T1, human P2X3 receptor (Homo sapiens, UniProt P56373).
T1 sequence (P56373 1-397): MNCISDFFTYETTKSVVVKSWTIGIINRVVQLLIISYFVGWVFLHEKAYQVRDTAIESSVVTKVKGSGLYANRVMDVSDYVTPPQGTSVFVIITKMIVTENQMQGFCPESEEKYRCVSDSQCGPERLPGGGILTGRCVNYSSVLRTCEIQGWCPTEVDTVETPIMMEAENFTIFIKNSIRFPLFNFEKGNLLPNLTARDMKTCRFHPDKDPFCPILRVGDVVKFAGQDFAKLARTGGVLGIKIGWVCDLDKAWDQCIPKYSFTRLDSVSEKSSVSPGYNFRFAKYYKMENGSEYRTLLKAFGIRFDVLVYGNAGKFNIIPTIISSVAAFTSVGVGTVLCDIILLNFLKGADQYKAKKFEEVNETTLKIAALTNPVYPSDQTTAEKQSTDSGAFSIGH
In words: Intracellular calcium measurement to assess antagonist activity at human P2X3 receptors (hP2X3 FLIPR). More on the design: expressed in transfected cells; host or cells: human astrocytoma 1321N1 (1312N1 [sic]). Conditions: head prints (1321N1); read-out: 1) hP2X3 IC50 [nM] (1321N1). On the procedure:
1) Intracellular Calcium Measurement to Assess Antagonist Activity at Human P2X3 Receptors (hP2X3 FLIPR)
A fluorescent imaging plate reader (FLEX/FLIPR station; Molecular Devices) was used to monitor intracellular calcium levels using the calcium-chelating dye Fluo-4 (Molecular Probes). The excitation and emission wavelengths used to monitor fluorescence were 470-495 nm and 515-575 nm, respectively. The human astrocytoma […] cells expressing purinergic receptors P2X3 (human) were plated at a density of 15,000 cells/well in collagen—coated 384-well plates approximately 20 hours before beginning the assay. […] The dye supernatant was removed and replaced with 45 μl probenecid buffer (Hank's balanced salt solution, 20 mM HEPES, 0.5 mM CaCl2, 0.5 mM MgCl2, 0.1% BSA, 5 mM probenecid, 10 mM D-glucose monohydrate, pH=7.4). The test compounds were added in a volume of 5 μl and allowed to incubate for 30 min at 37° C. The final assay DMSO concentration is 1%. […] The fluorescence was measured for an interval of 90 sec at 2 sec intervals and analyzed based on the increase in peak relative fluorescence units (RFU) compared to the basal fluorescence. Peak fluorescence was used to determine the response to agonist obtained at each concentration of test compound by the following equation: Response=100*(RFU(test compound)−RFU(control))/(RFU(DMSO)−RFU(control))
The Examples were tested in triplicates per plate and mean values were plotted in Excel XLFit to determine IC50 values at the human P2X3 and human P2X2/3 receptors, percentage of maximal inhibition and the Hill coefficients.
A general note: Calcium flux is commonly read through the fluorescence of an indicator in the cells.

For test [2], the target named is T1, human P2X3 receptor. Nature of the test: Intracellular calcium measurement, antagonist activity at human P2X3 receptors (hP2X3 1321N1), Fluo8. Details: expressed in transfected cells; host or cells: human astrocytoma 1321N1 (1312N1 [sic]). Conditions: column 3); 1321N1 cells, human P2X3, Fluo8, agonist ATP at EC50. Put shortly:
(§1)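 Inhibition of ATP-triggered Ca2+ transients is measured in 1321N1 cells expressing P2X3 homotrimers or P2X2/3 heterotrimers.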

In test [3] the target is T1, human P2X3 receptor. Nature of the test: Intracellular calcium measurement to assess antagonist activity at human P2X3 receptors (hP2X3 CHO), photina luminescence. More on the design: expressed in transfected cells; host or cells: Chinese hamster ovary (CHO) cells. Conditions: column 2), CHO cells, agonist α,β-methylene-ATP at EC50. Put shortly: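 CHO cells stably expressing human P2X3 and mitochondrial photina, plated the day before at 30 °C, then loaded 3 h at 37 °C in 2 mM Ca-tyrode buffer with 5 μg/ml coelenterazine. Agonist-evoked calcium luminescence read immediately; inhibition seen as signal decrease.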

A further test addresses T2, human P2X2/3 receptors (Homo sapiens, UniProt P56373+Q9UBL9).
T2 construct: expressed in transfected cells; host or cells: human astrocytoma 1321N1 (1312N1 [sic])
T2 sequence (P56373 1-397): T1 sequence (P56373 1-397)
T2 sequence (Q9UBL9 1-471): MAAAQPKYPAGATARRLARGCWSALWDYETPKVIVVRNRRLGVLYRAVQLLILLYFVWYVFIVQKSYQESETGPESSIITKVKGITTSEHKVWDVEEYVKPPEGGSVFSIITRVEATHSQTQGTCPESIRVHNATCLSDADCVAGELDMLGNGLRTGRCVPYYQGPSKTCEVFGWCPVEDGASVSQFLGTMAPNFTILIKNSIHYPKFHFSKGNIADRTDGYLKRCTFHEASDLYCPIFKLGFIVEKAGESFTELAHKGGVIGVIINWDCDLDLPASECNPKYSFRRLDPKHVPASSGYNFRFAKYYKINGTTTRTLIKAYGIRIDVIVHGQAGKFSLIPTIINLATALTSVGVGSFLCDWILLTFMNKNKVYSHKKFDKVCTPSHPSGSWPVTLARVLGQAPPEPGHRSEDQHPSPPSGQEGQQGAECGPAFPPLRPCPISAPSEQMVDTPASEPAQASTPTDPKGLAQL
In words: Intracellular calcium measurement, antagonist activity at human P2X2/3 receptors (hP2X23 1321N1), Fluo8. Conditions: for IC50: column 4); 1321N1 cells, human P2X2/3, Fluo8, agonist ATP at EC50; read-out: 4) hP2X2/3 IC50 [nM] (1321N1); for hP2X23/hP2X3* Selectivity (1321N1): ratio of column 4) hP2X2/3 to column 3) hP2X3, 1321N1. Put shortly: as §1

Consider `CC(C)N1Cc2c(n(CC(=O)Nc3ccc(F)cn3)c3cc(C(F)(F)F)nn3c2=O)C1=O` [Example 31], for which the IC50 at human P2X3 receptor [1] was 130 nM; at human P2X3 receptor [2], 277 nM; on human P2X3 receptor [3] it was 120 nM; at human P2X2/3 receptors it was over 32000 nM. Also, the “hP2X23/hP2X3* Selectivity (1321N1)” value on human P2X2/3 receptors is reported as over 116.
`CC(C)(O)CN1Cc2c(n(CC(=O)Nc3ccc(F)cn3)c3cc(C(C)(C)C)nn3c2=O)C1=O` [Example 32]: the IC50 on human P2X3 receptor [1] is 139 nM; on human P2X3 receptor [2] it was 170 nM; at human P2X3 receptor [3], 121 nM; on human P2X2/3 receptors, 12000 nM. Further, at human P2X2/3 receptors, the “hP2X23/hP2X3* Selectivity (1321N1)” value worked out at 71.
Take `CC(C)(C)c1cc2n(CC(=O)Nc3ccc(F)cn3)c3c(c(=O)n2n1)CN(C1CCOCC1)C3=O` [Example 33]: the IC50 on human P2X3 receptor [1] is 276 nM; on human P2X3 receptor [2], 297 nM; at human P2X3 receptor [3] it was 165 nM; on human P2X2/3 receptors, over 21500 nM. For the same compound, at human P2X2/3 receptors, the “hP2X23/hP2X3* Selectivity (1321N1)” value was over 72.
For the compound `COC[C@H](C)N1Cc2c(n(CC(=O)Nc3ccc(F)cn3)c3cc(C(C)(C)C)nn3c2=O)C1=O` [Example 35], the IC50 was determined as 12 nM at human P2X3 receptor [1], 16 nM at human P2X3 receptor [2], 20 nM at human P2X3 receptor [3] and 5650 nM on human P2X2/3 receptors. For the same compound, the “hP2X23/hP2X3* Selectivity (1321N1)” value at human P2X2/3 receptors stood at 353.
With `COCC(C)N1Cc2c(n(CC(=O)Nc3ccc(F)cn3)c3cc(Br)nn3c2=O)C1=O` (stereo not shown) [Example 36, 2-[2-bromo-6-(1-methoxypropan-2-yl)-5,8-dioxo-5,6,7,8-tetrahydro-4H-pyrazolo[1,5-a]pyrrolo[3,4-d]pyrimidin-4-yl]-N-(5-fluoropyridin-2-yl)acetamide], the IC50 is 34 nM at human P2X3 receptor [1], 57 nM at human P2X3 receptor [2], 44 nM on human P2X3 receptor [3] and over 20900 nM at human P2X2/3 receptors. In addition, the “hP2X23/hP2X3* Selectivity (1321N1)” value on human P2X2/3 receptors is recorded as over 368.
As to `COC[C@H](C)N1Cc2c(n(CC(=O)Nc3ccc(F)cn3)c3cc(C(F)(F)F)nn3c2=O)C1=O` [Example 37], the IC50 was 82 nM at human P2X3 receptor [1], 200 nM at human P2X3 receptor [2], 135 nM at human P2X3 receptor [3] and over 32000 nM on human P2X2/3 receptors. For the same compound, on human P2X2/3 receptors, the “hP2X23/hP2X3* Selectivity (1321N1)” value is on record as over 160.
Take `CC(C)(C)c1cc2n(CC(=O)Nc3ccc(F)cn3)c3c(c(=O)n2n1)CN(CC(=O)N1CCCC1)C3=O` [Example 38]: the IC50 at human P2X3 receptor [1] was 161 nM; on human P2X3 receptor [2], 627 nM; at human P2X3 receptor [3], 175 nM; on human P2X2/3 receptors, over 21000 nM. Also, the “hP2X23/hP2X3* Selectivity (1321N1)” value at human P2X2/3 receptors was over 34.
In the same order, the values of `COC[C@H](C)N1Cc2c(n(CC(=O)Nc3ccc(F)cn3)c3cc(C(C)C)nn3c2=O)C1=O` [Example 39] are 14 nM, 25 nM, 29 nM, 7550 nM and 308.
For `COC[C@H](C)N1Cc2c(n(CC(=O)Nc3ccc(F)cn3)c3cc(C4CCOCC4)nn3c2=O)C1=O` [Example 40], the IC50 on human P2X3 receptor [1] was 20 nM; at human P2X3 receptor [2], 31 nM; at human P2X3 receptor [3] it was 26 nM; at human P2X2/3 receptors, over 23500 nM. Besides, the “hP2X23/hP2X3* Selectivity (1321N1)” value at human P2X2/3 receptors was over 758.
Take `COC[C@H](C)N1Cc2c(n(CC(=O)Nc3ccc(F)cn3)c3cc(C)nn3c2=O)C1=O` [Example 41]: the IC50 at human P2X3 receptor [1] is 55 nM; on human P2X3 receptor [2] it was 82 nM; on human P2X3 receptor [3], 51 nM; at human P2X2/3 receptors, over 32000 nM. Also, the “hP2X23/hP2X3* Selectivity (1321N1)” value at human P2X2/3 receptors was over 393.
As to `COC[C@@H](C)N1Cc2c(n(CC(=O)Nc3ccc(F)cn3)c3cc(C(C)(C)C)nn3c2=O)C1=O` [Example 43], the IC50 on human P2X3 receptor [1] turned out to be 19 nM; at human P2X3 receptor [2] it was 31 nM; on human P2X3 receptor [3], 20 nM; at human P2X2/3 receptors, 6500 nM. In addition, at human P2X2/3 receptors, the “hP2X23/hP2X3* Selectivity (1321N1)” value was 213.
In the same order, the values of `COC[C@@H](C)N1Cc2c(n(CC(=O)Nc3ccc(F)cn3)c3cc(C(C)C)nn3c2=O)C1=O` [Example 44] are 16 nM, 34 nM, 39 nM, 8200 nM and 241.
Consider `CC(C)N1Cc2c(n(CC(=O)Nc3ccc(F)cn3)c3ccnn3c2=O)C1=O` [Example 45], for which the IC50 on human P2X3 receptor [1] was 377 nM; at human P2X3 receptor [2] it was 370 nM; on human P2X3 receptor [3] it was 394 nM; at human P2X2/3 receptors, over 32000 nM. The “hP2X23/hP2X3* Selectivity (1321N1)” value at human P2X2/3 receptors was over 86.
For the compound `CCc1cc2n(CC(=O)Nc3ccc(F)cn3)c3c(c(=O)n2n1)CN([C@@H](C)COC)C3=O` [Example 46], the IC50 was determined as 28 nM at human P2X3 receptor [1], 36 nM at human P2X3 receptor [2], 59 nM at human P2X3 receptor [3] and 14000 nM on human P2X2/3 receptors. The “hP2X23/hP2X3* Selectivity (1321N1)” value at human P2X2/3 receptors was determined as 385.
In the same order, the values of `CC(C)(C)c1cc2n(CC(=O)Nc3ccc(Cl)cn3)c3c(c(=O)n2n1)CN(C1COC1)C3=O` [Example 48] are 182 nM, 263 nM, 555 nM, 8100 nM and 31.
For the compound `COCCN1Cc2c(n(CC(=O)Nc3ccc(F)cn3)c3cc(C(C)(C)C)nn3c2=O)C1=O` [Example 49], the IC50 on human P2X3 receptor [1] was determined as 23 nM; at human P2X3 receptor [2] it was 33 nM; on human P2X3 receptor [3] it was 62 nM; on human P2X2/3 receptors, 3900 nM. Also, the “hP2X23/hP2X3* Selectivity (1321N1)” value at human P2X2/3 receptors came to 119.
`Cc1cc2n(CC(=O)Nc3ccc(F)cn3)c3c(c(=O)n2n1)CN([C@@H](C)C1CC1)C3=O` [Example 50]: the IC50 on human P2X3 receptor [1] stood at 117 nM; at human P2X3 receptor [2], 155 nM; at human P2X3 receptor [3], 215 nM; on human P2X2/3 receptors it was 8700 nM. Also, the “hP2X23/hP2X3* Selectivity (1321N1)” value on human P2X2/3 receptors was 56.
As to `CC(C)c1cc2n(CC(=O)Nc3ccc(F)cn3)c3c(c(=O)n2n1)CN(CC(C)(C)O)C3=O` [Example 51], the IC50 on human P2X3 receptor [1] was 311 nM; on human P2X3 receptor [2], 253 nM; on human P2X3 receptor [3], 160 nM; at human P2X2/3 receptors, 11500 nM. For the same compound, on human P2X2/3 receptors, the “hP2X23/hP2X3* Selectivity (1321N1)” value is reported as 46.
In the same order, the values of `COC[C@@H](C)N1Cc2c(n(CC(=O)Nc3ccc(F)cn3)c3cc(C)nn3c2=O)C1=O` [Example 52] are 52 nM, 71 nM, 43 nM, over 23000 nM and over 324.
For the compound `CC[C@H](C)N1Cc2c(n(CC(=O)Nc3ccc(F)cn3)c3cc(C)nn3c2=O)C1=O` [Example 53], the IC50 is 133 nM at human P2X3 receptor [1], 200 nM at human P2X3 receptor [2], 195 nM at human P2X3 receptor [3] and over 22000 nM on human P2X2/3 receptors. Moreover, the “hP2X23/hP2X3* Selectivity (1321N1)” value on human P2X2/3 receptors is listed as over 110.
